Measured values: patent publication US10201564B2, “Methods of using inhaled nitric oxide gas for treatment of acute respiratory distress syndrome in children” (Mallinckrodt Hospital Products IP Limited, priority 2014, dated 2019)

Tested on: patients with moderately severe Acute Lung Injury (ALI)
Assay: Adult ALI/ARDS study, 5 ppm iNO versus placebo: efficacy and respiratory parameters
Format: in vivo, human
Settings: for mortality, benefit versus control: adults
Procedure: A large-scale, randomized, blinded, placebo-controlled study was carried out in the Intensive Care Units (ICUs) of 46 US hospitals to evaluate the efficacy of low-dose (5 ppm) iNO in 385 patients with moderately severe Acute Lung Injury (ALI). The primary endpoint of this study was number of days alive and off assisted breathing.
Patients had acute lung injury (ALI), defined by a modification of American-European Consensus Conference criteria (PaO2/inspired oxygen concentration [FiO2] ratio of ≤250 mm Hg), due to causes other than severe sepsis. Patients with evidence of non-pulmonary system failure at the time of randomization and sepsis-induced ARDS were excluded. Patients were also excluded if they had sustained hypotension requiring vasopressor support, hemodynamic profiles supporting severe sepsis, severe head injury, severe burns, or evidence of other significant organ system dysfunction at baseline.
Patients were randomly assigned to receive either inhaled placebo gas (nitrogen) or 5 ppm of iNO (INO Therapeutics Inc., Port Allen, La.). All patients, healthcare professionals, and investigators were blinded to the assigned treatment. Inhaled NO was administered via INOvent® delivery system (Datex-Ohmeda, Madison, Wis.) that blended treatment gas (nitrogen or NO at 100-ppm balance nitrogen) 1:20 with ventilator gases to achieve a target ppm value in the inspiratory limb of the ventilator.
All patients using the iNO delivery system received mechanical ventilatory support. Treatment continued with active or placebo gas until one of the following criteria were met: [1] end of trial (28 days); [2] death; or [3] adequate oxygenation (arterial oxygen saturation by pulse oximetry [SpO2]≥92% or PaO2 of ≥63 mm Hg) without treatment gas at ventilator settings of FiO2≤0.4 and positive end-expiratory pressure (PEEP) of ≤5 cm H2O. Decreases in treatment gas continued in 20% decrements (titrated down by 1 ppm for inhaled NO) every 30 minutes until either the treatment gas concentration reached 0% or oxygenation criteria were not satisfied. If oxygenation criteria were not met, treatment gas concentration was titrated up until they were again achieved. Increments of upward titration were determined by the clinician, based on degree of arterial desaturation.
Baseline oxygenation measures included PaO2, arterial partial pressure of CO2 (PaCO2), SpO2, FiO2, PEEP, PaO2/FiO2 ratio, […], tidal volume, and mean airway pressure. Respiratory parameters (FiO2, PEEP, and PaO2/FiO2 ratio) were recorded on case report forms every 12 hours during mechanical ventilation.
Between-group differences in baseline clinical and demographic characteristics were assessed with the Fisher's exact test and the chi-square test for categorical variables and with the Wilcoxon rank sum test for continuous variables. Baseline oxygenation and respiratory/oxygenation parameters in the two groups were compared using Wilcoxon rank sum tests. The areas under the curve (AUCs) of FiO2, PEEP, and PaO2/FiO2 ratio were calculated using the trapezoidal rule. The null hypothesis that the respective AUCs were normally distributed was rejected employing the Shapiro-Wilk test. A Wilcoxon rank sum test was utilized to assess the differences in each median AUC between treatment groups. A p value <0.05 was considered significant.

In the case of `[N]=O` [Nitric Oxide, nitric oxide], the “days alive and meeting oxygenation criteria for extubation, benefit versus control” value (5 ppm iNO vs nitrogen gas, intent-to-treat) is reported as “no significant benefit”, the “mortality, benefit versus control” value (5 ppm iNO vs nitrogen gas, intent-to-treat, listed as Inhaled NO) is reported as “did not improve” and the “mortality, benefit versus control” value (5 ppm iNO vs nitrogen gas, intent-to-treat, listed as iNO) is reported as “no significant benefit”. The “aggregate per-patient changes from baseline in supplemental oxygen, PEEP, or PaO2/FiO2 ratio, between groups” value (during mechanical ventilation, iNO vs placebo) was “no significant differences”, the “partial pressure of arterial oxygen (PaO2)” value (initial 24 hours of treatment, resolved by 48 hours, p<0.05) was “significant increase” and the “days alive and off assisted breathing, benefit versus control” value (primary endpoint, 5 ppm iNO vs nitrogen gas, intent-to-treat) was “no significant benefit”.
